The source of these data is PubChem BioAssay AID1259407 (Chemical Carcinogenesis Research Information System (CCRIS), 2018).

The series concerns CCRIS mutagenicity, Ames/micronucleus/aberration tests. Kind of series: CCRIS mutagenicity studies.
The mark [1] stands for this setting: Test System: AMES SALMONELLA TYPHIMURIUM, Strain/Indicator: TA98, Metabolic Activation: NONE, Method: STANDARD PLATE.
The mark [2] stands for this setting: Test System: AMES SALMONELLA TYPHIMURIUM, Strain/Indicator: TA100, Metabolic Activation: NONE, Method: STANDARD PLATE.

Calls of active or inactive are those of the source. The rule behind the calls is not given here.

As to `C=CCN=C=S`, the mutagenic call is, setting by setting: (End Point: IN VITRO CHROMOSOMAL ABERRATIONS, Test System: CHINESE HAMSTER OVARY CELLS, Metabolic Activation: NONE) “active; positive”; (End Point: IN VITRO CHROMOSOMAL ABERRATIONS, Test System: CHINESE HAMSTER OVARY CELLS, Metabolic Activation: RAT, LIVER, S-9, AROCLOR 1254) “active; positive”; (End Point: IN VITRO CHROMOSOMAL ABERRATIONS, Test System: CHINESE HAMSTER OVARY CELLS, Metabolic Activation: RAT. LIVER, S-9, AROCLOR 1254) “inactive; negative”; (Test System: AMES SALMONELLA TYPHIMURIUM, Strain/Indicator: TA97, Metabolic Activation: NONE, Method: PREINCUBATION) “inactive; negative”; (Test System: AMES SALMONELLA TYPHIMURIUM, Strain/Indicator: TA97, Metabolic Activation: NONE, Method: PREINCUBATION (120 MIN)) “inactive; negative”; (Test System: AMES SALMONELLA TYPHIMURIUM, Strain/Indicator: TA97, Metabolic Activation: RAT, LIVER, S-9, AROCLOR 1254, Method: PREINCUBATION) “inactive; negative”. The mutagenic call by setting is: (Test System: AMES SALMONELLA TYPHIMURIUM, Strain/Indicator: TA97, Metabolic Activation: S-9, Method: PREINCUBATION (120 MIN)) “inactive; negative”; (Test System: AMES SALMONELLA TYPHIMURIUM, Strain/Indicator: TA98, Metabolic Activation: NONE, Method: PREINCUBATION (120 MIN)) “inactive; negative”; under setting [1], “inactive; negative”; (Test System: AMES SALMONELLA TYPHIMURIUM, Strain/Indicator: TA98, Metabolic Activation: RAT LIVER S-9, AROCLOR 1254, Method: STANDARD PLATE) “active; positive”; (Test System: AMES SALMONELLA TYPHIMURIUM, Strain/Indicator: TA98, Metabolic Activation: S-9, Method: PREINCUBATION (120 MIN)) “inactive; negative”; (Test System: AMES SALMONELLA TYPHIMURIUM, Strain/Indicator: TA98, Metabolic Activation: S-9, Method: STANDARD PLATE) “inactive; negative”. For the same compound, the mutagenic call was “inactive; negative” (Test System: AMES SALMONELLA TYPHIMURIUM, Strain/Indicator: TA100, Metabolic Activation: NONE, Method: PREINCUBATION (20, 60 OR 120 MIN)); “inactive; negative” (Test System: AMES SALMONELLA TYPHIMURIUM, Strain/Indicator: TA100, Metabolic Activation: NONE, Method: PREINCUBATION (120 MIN)); “inactive; negative” under setting [2]; “active; positive” (Test System: AMES SALMONELLA TYPHIMURIUM, Strain/Indicator: TA100, Metabolic Activation: RAT LIVER S-9, AROCLOR 1254, Method: STANDARD PLATE); “active; positive” (Test System: AMES SALMONELLA TYPHIMURIUM, Strain/Indicator: TA100, Metabolic Activation: RAT, LIVER, S-9, AROCLOR 1254 (3.8 MG PROTEIN/ML), Method: PREINCUBATION (60 OR 120 MIN)); “inactive; negative” (Test System: AMES SALMONELLA TYPHIMURIUM, Strain/Indicator: TA100, Metabolic Activation: RAT, LIVER, S-9, AROCLOR 1254 (3.8 OR 11.4 MG PROTEIN/ML), Method: PREINCUBATION (20 MIN)). Besides, the mutagenic call is “inactive; negative” (Test System: AMES SALMONELLA TYPHIMURIUM, Strain/Indicator: TA100, Metabolic Activation: RAT, LIVER, S-9, AROCLOR 1254 (11.4 MG PROTEIN/ML), Method: PREINCUBATION (60 MIN)); “active; positive” (Test System: AMES SALMONELLA TYPHIMURIUM, Strain/Indicator: TA100, Metabolic Activation: RAT, LIVER, S-9, AROCLOR 1254 (11.4 MG PROTEIN/ML), Method: PREINCUBATION (120 MIN)); “inactive; negative” (Test System: AMES SALMONELLA TYPHIMURIUM, Strain/Indicator: TA100, Metabolic Activation: S-9, Method: PREINCUBATION (120 MIN)); “inactive; negative” (Test System: AMES SALMONELLA TYPHIMURIUM, Strain/Indicator: TA100, Metabolic Activation: S-9, Method: STANDARD PLATE); “inactive; negative” (Test System: AMES SALMONELLA TYPHIMURIUM, Strain/Indicator: TA102, Metabolic Activation: NONE, Method: PREINCUBATION); “inactive; negative” (Test System: AMES SALMONELLA TYPHIMURIUM, Strain/Indicator: TA102, Metabolic Activation: RAT, LIVER, S-9, AROCLOR 1254, Method: PREINCUBATION). Where the note is “Test System: UDS RAT HEPATOCYTES, Strain/Indicator: THY-INCORP, Metabolic Activation: IN VIVO, Method: AUTORADIOGRAPHY”, the mutagenic call is “inactive; negative”.
Regarding `CS(=O)CCCCN=C=S` (stereo unspecified), the mutagenic call (End Point: IN VITRO MICRONUCLEUS, Test System: HUMAN T-LYMPHOCYTES, Metabolic Activation: NONE) is “inactive; negative”.
Turning to `CCCCO`, the mutagenic call by setting is: under setting [1], “inactive; negative”; (Test System: AMES SALMONELLA TYPHIMURIUM, Strain/Indicator: TA98, Metabolic Activation: RAT, LIVER, S-9, AROCLOR, Method: STANDARD PLATE) “inactive; negative”; under setting [2], “inactive; negative”; (Test System: AMES SALMONELLA TYPHIMURIUM, Strain/Indicator: TA100, Metabolic Activation: RAT, LIVER, S-9, AROCLOR, Method: STANDARD PLATE) “inactive; negative”; (Test System: AMES SALMONELLA TYPHIMURIUM, Strain/Indicator: UTH8413, Metabolic Activation: NONE, Method: STANDARD PLATE) “inactive; negative”; (Test System: AMES SALMONELLA TYPHIMURIUM, Strain/Indicator: UTH8413, Metabolic Activation: RAT, LIVER, S-9, AROCLOR, Method: STANDARD PLATE) “inactive; negative”. The mutagenic call by setting is: (Test System: AMES SALMONELLA TYPHIMURIUM, Strain/Indicator: UTH8414, Metabolic Activation: NONE, Method: STANDARD PLATE) “inactive; negative”; (Test System: AMES SALMONELLA TYPHIMURIUM, Strain/Indicator: UTH8414, Metabolic Activation: RAT, LIVER, S-9, AROCLOR, Method: STANDARD PLATE) “inactive; negative”.
Regarding `Oc1cc2c(cc1O)[C@@H]1c3ccc(O)c(O)c3OC[C@]1(O)C2`, the mutagenic call was “inactive; negative” (Test System: AMES SALMONELLA TYPHIMURIUM, Strain/Indicator: TA98, Metabolic Activation: HAMSTER, LIVER, S-9, AROCLOR 1254, Method: PREINCUBATION); “inactive; negative” (Test System: AMES SALMONELLA TYPHIMURIUM, Strain/Indicator: TA98, Metabolic Activation: NONE, Method: PREINCUBATION); “inactive; negative” (Test System: AMES SALMONELLA TYPHIMURIUM, Strain/Indicator: TA98, Metabolic Activation: RAT, LIVER, S-9, AROCLOR 1254, Method: PREINCUBATION); “inactive; negative” (Test System: AMES SALMONELLA TYPHIMURIUM, Strain/Indicator: TA100, Metabolic Activation: HAMSTER, LIVER, S-9, AROCLOR 1254, Method: PREINCUBATION); “inactive; negative” (Test System: AMES SALMONELLA TYPHIMURIUM, Strain/Indicator: TA100, Metabolic Activation: NONE, Method: PREINCUBATION); “inactive; negative” (Test System: AMES SALMONELLA TYPHIMURIUM, Strain/Indicator: TA100, Metabolic Activation: RAT, LIVER, S-9, AROCLOR 1254, Method: PREINCUBATION). Moreover, the mutagenic call is, setting by setting: (Test System: AMES SALMONELLA TYPHIMURIUM, Strain/Indicator: TA1535, Metabolic Activation: HAMSTER, LIVER, S-9, AROCLOR 1254, Method: PREINCUBATION) “inactive; negative”; (Test System: AMES SALMONELLA TYPHIMURIUM, Strain/Indicator: TA1535, Metabolic Activation: NONE, Method: PREINCUBATION) “inactive; negative”; (Test System: AMES SALMONELLA TYPHIMURIUM, Strain/Indicator: TA1535, Metabolic Activation: RAT, LIVER, S-9, AROCLOR 1254, Method: PREINCUBATION) “inactive; negative”; (Test System: AMES SALMONELLA TYPHIMURIUM, Strain/Indicator: TA1537, Metabolic Activation: HAMSTER, LIVER, S-9, AROCLOR 1254, Method: PREINCUBATION) “inactive; negative”; (Test System: AMES SALMONELLA TYPHIMURIUM, Strain/Indicator: TA1537, Metabolic Activation: NONE, Method: PREINCUBATION) “inactive; negative”; (Test System: AMES SALMONELLA TYPHIMURIUM, Strain/Indicator: TA1537, Metabolic Activation: RAT, LIVER, S-9, AROCLOR 1254, Method: PREINCUBATION) “inactive; negative”.
